The structures appear in SMILES notation.

This series is described as follows: in-vitro dissolution, rotating blade method at 75 rpm according to USP24. Type of series: physicochemical.

As to `CC(C)OC(=O)C(C)(C)Oc1ccc(C(=O)c2ccc(Cl)cc2)cc1` [fenofibrate, 2-[4-(4-chlorobenzoyl)phenoxy]-2-methyl propionate], the “% release of fenofibrate” value runs as follows: (water with 0.025 M sodium lauryl sulfate, 1200 ml, 5 min) 8-10%; (water with 0.025 M sodium lauryl sulfate, 1200 ml, 10 min) 16-22%; (water with 0.025 M sodium lauryl sulfate, 1200 ml, 20 min) 24-30%; (water with 2% by weight polysorbate-80, 1200 ml, 5 min) 4-8%; (water with 2% by weight polysorbate-80, 1200 ml, 10 min) 19-22%; (water with 2% by weight polysorbate-80, 1200 ml, 20 min) 30-32%. Further, the “% release of fenofibrate” value (water with 2% by weight polysorbate-80, 1200 ml, 30 min) is listed as 36-38%.

The values above are taken from patent US6828334B2, “Fenofibrate-cyclodextrin inclusion complexes and their pharmaceutical composition” (USV Limited, priority 2002, dated 2004).
